Results published in paper PMC10331583, “Control of fibrosis with enhanced safety via asymmetric inhibition of prolyl‐tRNA synthetase 1” (EMBO Molecular Medicine, 2023).
pIC50: −log10 of the molar value. Several values for one entry are separate records, joined by “and”; a condition that tells them apart may be missing. Equal values may be shown once. Read-outs that look alike come from different tables or passages of the source.

What was measured:
[1] = test system: TNT Quick Coupled Transcription/Translation System (luciferase synthesis); type: biochemical
WI‐26 VA4 cells [2] = test: Puromycin incorporation assay; type: cell-based, human; settings: for activity at 0.001 µM: WI26VA4, 1 nM; for activity at 0.01 µM: WI26VA4, 10 nM; for activity at 0.03 µM: WI26VA4, 30 nM; for activity at 0.1 µM: WI26VA4, 100 nM; for activity at 1 µM: WI26VA4, 1000 nM; for activity at 3 µM: WI26VA4, 3000 nM
In short: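 WI‐26 VA4 cell lysates prepared in carbonate-bicarbonate buffer with protease inhibitor; 400 ng protein coated on ELISA plates 18 h at 4°C. Puromycin incorporated into proteins detected by antibody ELISA, absorbance 450 nm with 620 nm reference; outlier values excluded based on replicates and adjacent concentrations.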

WI‐26 VA4 cells [3] = test: Immunoblot of cellular protein levels with different proline content; type: cell-based, human; settings: Fig 2A
Experimental: The levels of proteins were determined by immunoblot assay. […] The lowest concentration at which protein levels started to decrease was normalized by IC50 values for collagen level and used as the y‐axis value. […] The slope and R^2 value were calculated using GraphPad Prism 7.0. […] The activation of the TGF‐β pathway was determined by monitoring the phosphorylation of SMAD2. Immunoblot images are representative of three biologically independent experiments. • The band intensities of the immunoblot images in (C) were quantified using ImageJ (n = 3; One‐way ANOVA; *P < 0.05, **P < 0.01, ***P < 0.001; mean ± SEM). Source data are available online for this figure.

[4] = CellTiter‐Glo assay (cytotoxicity); settings: human, WI-26 VA4 cells, CC50 (CellTiter-Glo), 72 h (Fig 5B)
[5] = Homo sapiens, read-out: Puromycin, % of control, average
[6] = Homo sapiens, read-out: Puromycin, % of control, single replicate

O=C(CC1NCCCC1O)Cn1cnc2cc(Br)c(Cl)cc2c1=O (stereo not shown) [HF, Halofuginone, reference compound]
TNT-luciferase LogIC50 (best-fit value) [1]: 2.211
TNT-luciferase % of control, average ([1]; 6 nM): 106.95 % of control
TNT-luciferase % of control ([1]; 6 nM, 0.006 µM): 109.98 % of control and 110.97 % of control and 123.24 % of control and 104.46 % of control and 101.11 % of control and 91.92 % of control
TNT-luciferase % of control, average ([1]; 10 nM): 114.54 % of control
TNT-luciferase % of control ([1]; 10 nM, 0.01 µM): 118.82 % of control and 112.93 % of control and 98.69 % of control and 124.51 % of control and 116.16 % of control
TNT-luciferase % of control, average ([1]; 20 nM): 104.66 % of control
TNT-luciferase % of control ([1]; 20 nM, 0.02 µM): 102.13 % of control and 100.65 % of control and 102.62 % of control and 110.31 % of control and 109.47 % of control and 102.79 % of control
TNT-luciferase % of control, average ([1]; 36 nM): 110.74 % of control
TNT-luciferase % of control ([1]; 36 nM, 0.036 µM): 113.42 % of control and 108.02 % of control and 129.62 % of control and 107.80 % of control and 102.79 % of control
TNT-luciferase % of control, average ([1]; 60 nM): 109.84 % of control
TNT-luciferase % of control ([1]; 60 nM, 0.06 µM): 112.44 % of control and 104.58 % of control and 103.60 % of control and 118.66 % of control and 113.65 % of control and 106.13 % of control
TNT-luciferase % of control, average ([1]; 100 nM): 95.21 % of control
TNT-luciferase % of control ([1]; 100 nM, 0.1 µM): 67.76 % of control and 70.21 % of control and 67.27 % of control and 122.01 % of control and 126.18 % of control and 117.83 % of control
TNT-luciferase % of control, average ([1]; 200 nM): 33.45 % of control
TNT-luciferase % of control, average ([1]; 360 nM): 4.01 % of control
TNT-luciferase % of control, average ([1]; 600 nM): 0.26 % of control
TNT-luciferase % of control, average ([1]; 1000 nM): 0.09 % of control
TNT-luciferase % of control, average ([1]; 2000 nM): 0.02 % of control
TNT-luciferase % of control ([1]; 2000 nM, 2 µM): 0.04 % of control
pIC50 ([1]; read-out: TNT-luciferase IC50 (best-fit value)): 6.79
Puromycin, % of control, single replicate (WI‐26 VA4 cells [2]; 3 nM, 0.003 µM): 87.66 % of control and 110.89 % of control and 102.72 % of control and 101.10 % of control and 86.71 % of control and 84.36 % of control and 98.41 % of control and 95.09 % of control and 95.08 % of control and 108.41 % of control and 105.39 % of control and 104.60 % of control
Puromycin, % of control, single replicate (WI‐26 VA4 cells [2]; 10 nM, 0.01 µM): 100.34 % of control and 96.77 % of control and 97.76 % of control and 87.44 % of control and 83.58 % of control and 96.23 % of control and 94.53 % of control
Puromycin, % of control, single replicate (WI‐26 VA4 cells [2]; 30 nM, 0.03 µM): 113.27 % of control and 109.87 % of control and 110.26 % of control and 116.66 % of control and 114.17 % of control and 107.05 % of control and 108.24 % of control and 108.11 % of control and 111.56 % of control and 111.23 % of control and 110.22 % of control
Puromycin, % of control, single replicate (WI‐26 VA4 cells [2]; 100 nM, 0.1 µM): 90.48 % of control and 92.59 % of control and 92.61 % of control and 84.84 % of control and 84.75 % of control and 85.14 % of control and 85.25 % of control and 85.34 % of control and 84.22 % of control
Puromycin, % of control, single replicate (WI‐26 VA4 cells [2]; 300 nM, 0.3 µM): 10.84 % of control and 35.41 % of control and 34.99 % of control and 10.87 % of control and 10.33 % of control and 31.26 % of control and 32.35 % of control and 31.90 % of control and 32.62 % of control and 32.23 % of control and 32.21 % of control
Puromycin, % of control, single replicate (WI‐26 VA4 cells [2]; 3000 nM, 3 µM): 3.08 % of control (2×) and 2.96 % of control and 3.28 % of control and 2.21 % of control and 2.18 % of control and 2.60 % of control and 2.20 % of control and 3.16 % of control and 3.05 % of control
Puromycin, % of control, single replicate (WI‐26 VA4 cells [2]; 10000 nM, 10 µM): 3.89 % of control and 1.98 % of control and 2.07 % of control and 2.17 % of control and 4.12 % of control and 4.05 % of control and 1.27 % of control and 1.14 % of control and 1.39 % of control and 2.12 % of control and 2.04 % of control
Puromycin, % of control, single replicate (WI‐26 VA4 cells [2]; 30000 nM, 30 µM): 2.04 % of control and 1.64 % of control and 1.93 % of control and 3.75 % of control and 1.32 % of control and 1.84 % of control and 1.82 % of control and 1.41 % of control
activity at 0.001 µM (WI‐26 VA4 cells [2]; [5]): 102%
activity at 0.001 µM (WI‐26 VA4 cells [2]; [6]): 101%
activity at 0.003 µM (WI‐26 VA4 cells [2]; Homo sapiens, WI26VA4, 3 nM, read-out: Puromycin, % of control, average): 98.4%
activity at 0.01 µM (WI‐26 VA4 cells [2]; [5]): 94.8%
activity at 0.01 µM (WI‐26 VA4 cells [2]; [6]): 86.6%
activity at 0.03 µM (WI‐26 VA4 cells [2]; [5]): 111%
activity at 0.03 µM (WI‐26 VA4 cells [2]; [6]): 117%
activity at 0.1 µM (WI‐26 VA4 cells [2]; [5]): 88%
activity at 0.1 µM (WI‐26 VA4 cells [2]; [6]): 94.6%
activity at 0.3 µM (WI‐26 VA4 cells [2]; Homo sapiens, WI26VA4, 300 nM, read-out: Puromycin, % of control, average): 26.8%
activity at 1 µM (WI‐26 VA4 cells [2]; [5]): 3.03%
activity at 1 µM (WI‐26 VA4 cells [2]; [6]): 2.13%
activity at 3 µM (WI‐26 VA4 cells [2]; [5]): 2.66%
activity at 3 µM (WI‐26 VA4 cells [2]; [6]): 2.13%
activity at 10 µM (WI‐26 VA4 cells [2]; Homo sapiens, WI26VA4, 10000 nM, read-out: Puromycin, % of control, average): 2.36%
activity at 30 µM (WI‐26 VA4 cells [2]; Homo sapiens, WI26VA4, 30000 nM, read-out: Puromycin, % of control, average): 1.87%
pIC50 (WI‐26 VA4 cells [2]; Homo sapiens, WI26VA4, log(inhibitor) vs. response, variable slope (four parameters), read-out: Puromycin, IC50 (best-fit value)): 6.70
Puromycin, HillSlope (best-fit value) (WI‐26 VA4 cells [2]; log(inhibitor) vs. response, variable slope (four parameters)): -2.795
Puromycin, LogIC50 (best-fit value) (WI‐26 VA4 cells [2]; log(inhibitor) vs. response, variable slope (four parameters), concentration in nM): 2.301
effective dose for decreasing general proteins (SMAD2, AIMP2, AMPKα, cyclin D1) compared with COL1A1 (WI‐26 VA4 cells [3]): about three times
CC50 at 72 h [4]: 0.051 µM
